{"source": "patent US11752156B2", "about": "“Compositions and methods for treating hyperproliferative skin disorders” (Athenex HK Innovative Limited, priority 2018, dated 2023)", "key": {"[1]": {"system": "human keratinocytes in culture (cell line CCD-1106 KERTr)", "experiment": "cell viability / cell growth of human keratinocytes in culture, KX01, calcipotriol and fixed-ratio combinations", "assay_type": "cell-based", "parameters": "cell growth (cell viability): unit not given here", "from_the_text": "Typical data from studies of the effects of compound KX01 provided in combination with calcipotriol on growth of human keratinocytes in culture (cell line CCD-1106 KERTr) are shown in FIGS. 1 to 3 and Tables 1 to 6. FIG. 1 and Tables 1 and 2 show the degree of growth inhibition found in a typical study performed with KX01 and calcipotriol at a 1:5 ratio."}, "[2]": {"system": "human keratinocyte cell line", "experiment": "inhibition of human keratinocyte growth, individual dose response, 72 hours, MTT assay", "assay_type": "cell-based", "settings": "72 hour exposure", "experimental": "FIG. 4: Inhibition of human keratinocyte growth versus KX01 concentration (treatment duration: 72 hours; cell growth measured using the MTT assay). […] FIG. 5: Inhibition of human keratinocyte growth versus calcipotriol concentration (treatment duration: 72 hours; cell growth measured using the MTT assay). […] A human keratinocyte cell line was used in these studies."}, "CCD-1106 KERTr cells": {"system": "CCD-1106 KERTr cells", "experiment": "FITC annexin V / PI apoptosis assay by flow cytometry, 24 hours", "assay_type": "cell-based, human", "settings": "24 hours", "experimental": "In addition to growth inhibition, Inventors also investigated the effect of KX01 on apoptosis in keratinocytes. CCD-1106 KERTr cells (1×10^6) were seeded in 60 mm dishes and treated with test compounds at varying concentrations (e.g. KX01: 20 to 500 nM; calcipotriol 50 to 1000 nM) for 24 hours. Cell apoptosis was assessed by using a FITC annexin V apoptosis detection kit (BD Biosciences™) according to manufacturer's instruction. Briefly, cells were collected in 1× binding buffer and incubated with fluorescein isothiocyanate (FITC)-conjugated annexin V and propidium iodide (PI) for 15 minutes at room temperature in the dark, followed by flow cytometry analysis using a LSRFortessa™ flow cytometer (BD Biosciences™)."}, "[3]": {"system": "squamous cell human carcinoma cell line (SCC A431)", "experiment": "MTT cell proliferation assay, 72 hours, dark or blue light, squamous cell carcinoma", "assay_type": "cell-based", "settings": "for inhibition at 0.02 µM / inhibition at 0.04 µM / inhibition at 0.08 µM / inhibition at 0.01 µM: Homo sapiens, read-out: growth inhibition relative to untreated control", "experimental": "The effects of combined treatment with KX01, a vitamin D derivative, and/or blue/UV light exposure were characterized using a cell proliferation assay. Cell proliferation was assessed by using an MTT assay. Cells were seeded in 96-well plate (3,000-5,000 cells per well) and treated with test compounds at varying concentrations (e.g. KX01: 5 to 80 nM; calcipotriol 5 to 1,280 nM) for 72 hours, either in the dark or exposed to blue light irradiation (for 2, 4, or 6 hours). To each well, 10 μl of 3-(4,5-dimethylthiazol-2-yl)-2,5-diphenyltetrazolium bromide (MTT) (RPI Corporation™) solution (5 mg/ml in PBS) was added and incubated at 37° C. for 3 hours. Next, 100 μl of 20% SDS was added to each well. After overnight incubation at 37° C., the absorbance in each well was measured at 570 nm in a microplate reader (Molecular Devices™). The cell growth curve and GI50s were calculate using GraphPad Prism™ 5 software. Similar studies were performed using a squamous cell carcinoma cell line (SCC A431). Tables 19 and 20 show the results of cell growth inhibition studies (expressed as a percentage relative to control cell growth) for treatment with either KX01 or calcipotriol in combination with exposure to blue light. […] The percentage of growth inhibition relative to untreated control is shown. Tables 21 to 24 show the effects of combined treatment with KX01, calcipotriol, and exposure to blue light at 0 hours, 2 hours, 4 hours, and 6 hours of light exposure (respectively) on human squamous cell carcinoma cells. Values are expressed as the percentage of growth inhibition relative to cells grown under control conditions (0 hours blue light, [KX01]=0, [calcipotriol]=0). The percentage of growth inhibition relative to an untreated control is shown. […] Results are shown below in Tables 31 and 32, which show results for KX01 and calcipotriol (respectively). Values are expressed as the percentage of growth inhibition relative to cells grown under control conditions (0 hours blue light, [KX01]=0, [calcipotriol]=0). […] Results are shown below in Tables 33 to Table 36, which show results from 0, 2, 4, and 6 hours of blue light exposure (respectively). Values are expressed as the percentage of growth inhibition relative to cells grown under control conditions (0 hours blue light, [KX01]=0, [calcipotriol]=0)."}}, "note": "“And” between values parts separate entries of the source, which are not always exact repeats. Equal values may be shown once. Read-outs that look alike come from different tables or passages of the source.", "data": [{"smiles": "O=C(Cc1ccc(-c2ccc(OCCN3CCOCC3)cc2)cn1)NCc1ccccc1", "note": "[KX01, N-benzyl-2-(5-{4-[2-(morpholine-4-yl)ethoxy]phenyl}pyridine-2-yl)acetamide]", "values": [{"measurement": "GI50", "setting": "[1]", "value": "38 nM and 36 nM"}, {"measurement": "GI50", "setting": "[1]; Homo sapiens, CCD-1106", "value": 32, "unit": "nM"}, {"measurement": "viability at 0.000333 µM", "setting": "[1]; Homo sapiens, CCD-1106, concentration 0.333 nM", "value": 100, "unit": "%"}, {"measurement": "viability at 0.001 µM", "setting": "[1]; Homo sapiens, CCD-1106, concentration 1 nM", "value": 97, "unit": "%"}, {"measurement": "viability at 0.003 µM", "setting": "[1]; Homo sapiens, CCD-1106, concentration 3 nM", "value": 90.9, "unit": "%"}, {"measurement": "viability at 0.009 µM", "setting": "[1]; Homo sapiens, CCD-1106, concentration 9 nM", "value": 94.7, "unit": "%"}, {"measurement": "viability at 0.027 µM", "setting": "[1]; Homo sapiens, CCD-1106, concentration 27 nM", "value": 67.1, "unit": "%"}, {"measurement": "viability at 0.243 µM", "setting": "[1]; Homo sapiens, CCD-1106, concentration 243 nM", "value": 2.07, "unit": "%"}, {"measurement": "viability at 0.729 µM", "setting": "[1]; Homo sapiens, CCD-1106, concentration 729 nM", "value": 6.66, "unit": "%"}, {"measurement": "viability at 2.187 µM", "setting": "[1]; Homo sapiens, CCD-1106, concentration 2187 nM", "value": 8.91, "unit": "%"}, {"measurement": "cell growth (cell viability)", "setting": "[1]; concentration 0.333 nM, 0.000333 µM", "value": "102.3 and 98.0"}, {"measurement": "cell growth (cell viability)", "setting": "[1]; concentration 1 nM, 0.001 µM", "value": "99.9 and 101.3"}, {"measurement": "cell growth (cell viability)", "setting": "[1]; concentration 3 nM, 0.003 µM", "value": "100.0 and 96.6"}, {"measurement": "cell growth (cell viability)", "setting": "[1]; concentration 9 nM, 0.009 µM", "value": "100.2 and 98.2"}, {"measurement": "cell growth (cell viability)", "setting": "[1]; concentration 27 nM, 0.027 µM", "value": "79.8 and 80.1"}, {"measurement": "cell growth (cell viability)", "setting": "[1]; concentration 729 nM, 0.729 µM", "value": "9.9 and 7.3"}, {"measurement": "cell growth (cell viability)", "setting": "[1]; concentration 2187 nM, 2.187 µM", "value": "14.9 and 9.5"}, {"measurement": "IC50", "setting": "[2]", "value": 41.9, "unit": "nM"}, {"measurement": "late apoptic cells", "setting": "CCD-1106 KERTr cells; KX01 20 nM", "value": 2.09, "unit": "%"}, {"measurement": "late apoptic cells", "setting": "CCD-1106 KERTr cells; KX01 40 nM", "value": 3.50, "unit": "%"}, {"measurement": "late apoptic cells", "setting": "CCD-1106 KERTr cells; KX01 100 nM", "value": 6.33, "unit": "%"}, {"measurement": "late apoptic cells", "setting": "CCD-1106 KERTr cells; KX01 500 nM", "value": 4.34, "unit": "%"}, {"measurement": "inhibition at 0.02 µM", "setting": "[3]; A-431, 0 h, KX01 20 nM, blue light 0 h", "value": 99, "unit": "%"}, {"measurement": "inhibition at 0.04 µM", "setting": "[3]; A-431, 0 h, KX01 40 nM, blue light 0 h", "value": 99, "unit": "%"}, {"measurement": "inhibition at 0.08 µM", "setting": "[3]; A-431, 0 h, KX01 80 nM, blue light 0 h", "value": 99, "unit": "%"}, {"measurement": "inhibition at 0.01 µM", "setting": "[3]; A-431, 2 h, KX01 10 nM, blue light 2 h", "value": 40, "unit": "%"}, {"measurement": "inhibition at 0.02 µM", "setting": "[3]; A-431, 2 h, KX01 20 nM, blue light 2 h", "value": 97, "unit": "%"}, {"measurement": "inhibition at 0.04 µM", "setting": "[3]; A-431, 2 h, KX01 40 nM, blue light 2 h", "value": 97, "unit": "%"}, {"measurement": "inhibition at 0.08 µM", "setting": "[3]; A-431, 2 h, KX01 80 nM, blue light 2 h", "value": 95, "unit": "%"}, {"measurement": "inhibition at 0.01 µM", "setting": "[3]; A-431, 4 h, KX01 10 nM, blue light 4 h", "value": 66, "unit": "%"}, {"measurement": "inhibition at 0.02 µM", "setting": "[3]; A-431, 4 h, KX01 20 nM, blue light 4 h", "value": 76, "unit": "%"}, {"measurement": "inhibition at 0.04 µM", "setting": "[3]; A-431, 4 h, KX01 40 nM, blue light 4 h", "value": 73, "unit": "%"}, {"measurement": "inhibition at 0.08 µM", "setting": "[3]; A-431, 4 h, KX01 80 nM, blue light 4 h", "value": 75, "unit": "%"}, {"measurement": "inhibition at 0.01 µM", "setting": "[3]; A-431, 6 h, KX01 10 nM, blue light 6 h", "value": 79, "unit": "%"}, {"measurement": "inhibition at 0.02 µM", "setting": "[3]; A-431, 6 h, KX01 20 nM, blue light 6 h", "value": 81, "unit": "%"}, {"measurement": "inhibition at 0.04 µM", "setting": "[3]; A-431, 6 h, KX01 40 nM, blue light 6 h", "value": 81, "unit": "%"}, {"measurement": "inhibition at 0.08 µM", "setting": "[3]; A-431, 6 h, KX01 80 nM, blue light 6 h", "value": 82, "unit": "%"}, {"measurement": "growth inhibition relative to untreated control", "setting": "[3]; KX01 10 nM, blue light 0 h", "value": "0% and 11%"}, {"measurement": "growth inhibition relative to untreated control", "setting": "[3]; KX01 10 nM, blue light 2 h", "value": 44, "unit": "%"}, {"measurement": "growth inhibition relative to untreated control", "setting": "[3]; KX01 10 nM, blue light 6 h", "value": 77, "unit": "%"}, {"measurement": "growth inhibition relative to untreated control", "setting": "[3]; KX01 20 nM, blue light 0 h", "value": 80, "unit": "%"}, {"measurement": "growth inhibition relative to untreated control", "setting": "[3]; KX01 20 nM, blue light 2 h", "value": 83, "unit": "%"}, {"measurement": "growth inhibition relative to untreated control", "setting": "[3]; KX01 20 nM, blue light 4 h", "value": "69% and 74%"}, {"measurement": "growth inhibition relative to untreated control", "setting": "[3]; KX01 20 nM, blue light 6 h", "value": 83, "unit": "%"}, {"measurement": "growth inhibition relative to untreated control", "setting": "[3]; KX01 40 nM, blue light 0 h", "value": 100, "unit": "%"}, {"measurement": "growth inhibition relative to untreated control", "setting": "[3]; KX01 40 nM, blue light 4 h", "value": 80, "unit": "%"}, {"measurement": "growth inhibition relative to untreated control", "setting": "[3]; KX01 40 nM, blue light 6 h", "value": 86, "unit": "%"}, {"measurement": "growth inhibition relative to untreated control", "setting": "[3]; KX01 80 nM, blue light 2 h", "value": 98, "unit": "%"}, {"measurement": "growth inhibition relative to untreated control", "setting": "[3]; KX01 80 nM, blue light 4 h", "value": 84, "unit": "%"}, {"measurement": "growth inhibition relative to untreated control", "setting": "[3]; KX01 80 nM, blue light 6 h", "value": 88, "unit": "%"}, {"measurement": "effect of blue light exposure with the drug on cell growth inhibition", "setting": "[3]; for example at 10 nM KX01", "value": "Synergistic effects"}]}]}
